# Test system: p53 in RPMI-8226 cells
# Assay: Immunoblotting in RPMI-8226 cells with temperature-sensitive p53 (E285K) at permissive and restrictive temperature
# Format: cell-based, human
# Protocol: For immunoblotting, cell were detached with rubber policeman and washed three times with ice-cold PBS and lysed in buffer (50 mM Tris, pH 7.4, 250 mM NaCl, 5 mM EDTA, 50 mM NaF, 1 mM Na3VO4, 1% Nonidet P40) containing mixture of protease and phosphatase inhibitors (Sigma-Aldrich, USA). 20 μg of total proteins were separated by SDS-polyacrylamide gel electrophoresis (SDS-PAGE) and transferred onto nitrocellulose membranes. Membranes were blocked in 5% milk and 0.1% Tween 20 in PBS and probed overnight with specific monoclonal antibodies or rabbit polyclonal sera. […] All primary antibodies were diluted in PBS containing 5% powdered milk; 0.1% Tween 20. Peroxidase conjugated rabbit anti-mouse immunoglobulin or porcine anti-rabbit immunoglobulin antisera (DAKO, Denmark) were used as the secondary antibodies and visualised with ECL reagents (Amersham-Pharmacia, Little Chalfont, UK).
# Then, we also determined effect of the compounds on the cell lines expressing some temperature-sensitive mutants of p53. For example, in BT474 and RPMI-8226 cells bearing temperature-sensitive mutant of p53 (E285K), p53 protein switches between mutant and wild-type conformation in a temperature-dependent manner. At restrictive (37° C.) temperature mutated p53 protein is expressed, while after shift to a permissive (30° C.) temperature p53 is folded correctly and functional. To analyze the functional involvement of p53 in the efficiency of the treatment with the compounds, we cultivated RPMI-8226 cells independently at two different temperatures (restrictive or permissive), and exposed them to increasing doses of selected compounds. The cell lysates were prepared and the levels of cell cycle regulators were analysed by immunoblotting.
structure (smiles),measurement,setting,value
"CCC(CO)Nc1nc(NCc2cccc(OC)c2O)c2ncn(C(C)C)c2n1 (racemic) [Compound 128, (RS)-2-({6-[(2-hydroxy-3-methoxybenzyl)amino]-9-isopropyl-9-H-purin-2-yl}amino)butan-1-ol]","drug concentration causing fragmentation of PARP-1, permissive versus restrictive temperature",RPMI-8226 cells,about two-fold lower drug concentrations
same,level of wild-type p53 protein,RPMI-8226 cells at permissive (30° C.) temperature,caused accumulation of wild-type p53 protein
same,level of mutant p53,RPMI-8226 cells at restrictive (37° C.) temperature,did not change the levels of mutant p53
same,expression of anti-apoptotic protein Mcl-1,"RPMI-8226 cells, 30° C. versus restrictive temperature",suppressed more efficiently at 30 °C

# From patent US8492391B2, “Substituted 6-(2-hydroxybenzylamino)purine derivatives, their use as medicaments and compositions containing these derivatives” (Univerzita Palackeho V Olomouci, priority 2009, dated 2013)
